Data set [1] addresses T1, Keap1 Kelch domain (Homo sapiens, UniProt Q14145).
T1 construct: made in house
In words: Isothermal titration calorimetry (ITC). Format: binding. The protocol: The measurements were performed as described previously. The small molecule inhibitor at 500 μM was titrated over 30 injections against 50 μM protein in buffer containing 25 mM HEPES (pH 7.4), 200 mM NaCl and 5 % DMSO. ITC experiments were performed using a MicroCal PEAQ-ITC instrument (Malvern Instruments, UK) at 25 °C with a stirring speed of 750 rpm. The first injection volume was of 0.3 μL followed by 29 injections of 1.3 μL and a gap of 120 s between each injection. Data analyses were performed as previously described. Each small molecule ITC measurement was performed in duplicate and resultant values obtained were averaged after independent analysis.
On the technique in general: ITC needs no label: the signal is the heat of the interaction.

The next data set concerns NQO1. In words: NQO1 induction assay in Hepa1c1c7 cells. Format: cell-based, mouse. As to the method: The method using Hepa1c1c7 cells has been described previously. Briefly, cells were seeded into 96-well plates (2 × 10^4 cells/200 μL per well) then incubated overnight at 37 °C. The cells were treated with compound (10 μM final concentration) or vehicle (final DMSO concentration 0.1 % DMSO) and incubated for a further 24 h or 48 h. The culture medium was aspirated and the cells treated with lysis buffer (50 μL per well, 0.1 % Tween 20 in 2 mM EDTA (pH 7.5)) then agitated for 15 min. Enzyme reaction mixture was added to each well (200 μL of 25 mM Tris buffer (pH 7.5) containing BSA (0.067 %), Tween20 (0.01 %), FAD (5 μM), G6P (1 mM), NADP (30 μM), G6P dehydrogenase (40 units), MTT (0.03 %), menadione (50 μM)) for 5 min then stop solution was applied (40 μL of 10 % SDS, final concentration 1.5 % SDS). Following brief agitation of the plate, the absorbance at 595 nm was measured. The background optical density was measured from wells containing tissue culture medium, lysis buffer, enzyme and stop solutions in the absence of Hepa1c1c7 cells. The change in background-corrected NQO1 activity (change in optical density) relative to the control was determined for each compound.

In data set [2] the target is T1, Keap1 Kelch domain. In words: Fluorescence polarisation (FP) competition assay. Format: binding. As to the method: The FP assays were carried out according to previously described methods [[23],[31], [32], [33], [34]]. […] Following incubation under slow agitation (30 min at rt in the absence of light), the plates were transferred to a PHERAstar microplate reader and the FP was recorded. All measurements were recorded in triplicate. The data were normalised to the control and then fitted to a standard four-parameter logistic function using the Origin Pro software.

The next data set has as its system Keap1-mCherry. In words: Keap1-Glow Cellular Thermal Shift Assay (CETSA), U2OS cell lysates. Format: cell-based. Conditions: 10 μM, 1 h at 37 °C. As to the method: U2OS FRT/TO cells with doxycycline-inducible expression of Keap1-mCherry or mCherry were treated with 0.5 μg/mL of doxycycline for 72–96 h to induce the expression of the fluorescent proteins. Lysates of U2OS cells with doxycycline-inducible expression of Keap1-mCherry or mCherry were prepared by lysing in DPBS with EDTA-free protease inhibitor cocktail (PIC) using at least 22 strokes of the Dounce homogenizer. The lysates were cleared by centrifugation at 9600×g for 5 min at 22 °C and incubated with 10 μM compound 25 or vehicle (0.4 % DMSO) for 1 h at 37 °C [46]. The lysates were then heated for 3 min at the indicated range of temperatures (39 °C–72 °C, with 3 °C increments) using a thermal cycler, and the aggregated material was removed by a high-speed centrifugation at 17,000×g at 4 °C for 40 min or 15,000×g at 4 °C for 1 h. The soluble fractions were transferred to 96-well white opaque plates, and the fluorescence (580 nm excitation wavelength (20 nm excitation bandwidth), 635 nm emission wavelength (35 nm emission bandwidth)) was measured using a plate reader (TECAN Spark 10 M).

Data set [3] in a line: EXSY NMR of cis/trans rotamer exchange. Format: physicochemical. The source says:
A series of pseudo-3D EXSY spectra were then acquired for compound 25 in D2O at temperatures of 280, 290, 300, 310 and 320 K (700 MHz, pulse sequence adapted from noesygpphpr and available on request, 1 s recycle delay, 13 mixing times from 5 to 1000 ms, acquisition times of 367 ms and 52 ms and spectra widths of 16 ppm and 3.5 ppm for direct and indirect dimensions respectively). Spectra were processed with linear prediction and cosine-squared window functions. For each temperature, methoxy singlet resonances were selected for analysis, and the intensities of the diagonal ( IAA and IBB ) and cross peaks ( IAB and IBA ) were fitted to Eq. (1) as a function of the mixing time, T, to determine the exchange rates kAB and kBA [41]. The ‘A’ state was defined to be the more shielded signal. Reported uncertainties were obtained from the non-linear fitting procedure.(1) (IAAIABIBAIBB)(T)=exp[(−R1,A−kABkBAkAB−R1,B−kBA)T]·(IA000IB0)
Exchange rates kAB and kBA were used to determine the relative populations pA=kBA/kAB+kBA and pB=kAB/kAB+kBA and were fitted to van't Hoff and Eyring equations (with unit transmission coefficient) to estimate the enthalpy and entropy changes and enthalpy and entropy of activation.

Several values for one entry are separate records, joined by “and”; a condition that tells them apart may be missing. Equal entries are not always repeated. Where two headings read alike, the source gives them in different places.

T1 sequence (Q14145 322-609): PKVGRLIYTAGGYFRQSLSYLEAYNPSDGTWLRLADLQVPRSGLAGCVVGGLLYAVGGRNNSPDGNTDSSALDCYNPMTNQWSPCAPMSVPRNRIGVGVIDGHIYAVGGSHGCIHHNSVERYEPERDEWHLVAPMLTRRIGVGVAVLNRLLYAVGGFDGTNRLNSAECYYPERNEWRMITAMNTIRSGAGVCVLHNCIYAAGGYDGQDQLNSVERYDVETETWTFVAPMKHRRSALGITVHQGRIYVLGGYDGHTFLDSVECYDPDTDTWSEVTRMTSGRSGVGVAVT

Consider `COc1ccc(S(=O)(=O)N(CC(=O)O)c2ccc(N(Cc3nnn[nH]3)S(=O)(=O)c3ccc(OC)cc3)c3ccccc23)cc1` [Compound 25, N-(4-((N-((1H-tetrazol-5-yl)methyl)-4-methoxyphenyl)sulfonamido)naphthalen-1-yl)-N-((4-methoxyphenyl)sulfonyl)glycine], for which the Kd on Keap1 Kelch domain [1] (25 °C, read-out: ITC Kd) is under 1 nM; at Keap1 Kelch domain [1] (from ITC and MST data, read-out: Kd value for Keap1 Kelch domain (overall, lower limit of detection)) it was at most 1 nM. Besides, in the data set on NQO1 (48-h incubation), the “specific enzyme activity of NQO1” value was “increased”. The fold induction at 10 µM with NQO1 (Mus musculus, Hepa-1c1c7, 10 μM) stood at 2.01 ± 0.05. Moreover, at Keap1 Kelch domain [2] (200 nM Keap1 Kelch domain, 1 nM FITC-β-DEETGEF-OH), the IC50 is 31 ± 2 nM. At Keap1 Kelch domain [2] (vs 2), the “FP IC50 fold lower than the bis-acid 2” value is about 2 fold. Further, at Keap1 Kelch domain [2] (vs 13), the “FP IC50 fold lower than the bis-tetrazole 13” value is about 2.5 fold. In the data set on Keap1-mCherry, the “Target engagement in the cellular environment (CETSA)” value is “confirmed”. Also, the kA→B was 0.1633 ± 0.0072 s⁻¹ in data set [3] (D2O PBS buffer, 280 K, EXSY); 0.541 ± 0.013 s⁻¹ in data set [3] (D2O PBS buffer, 290 K, EXSY); 1.432 s⁻¹ and 1.432 ± 0.033 s⁻¹ in data set [3] (D2O PBS buffer, 300 K, EXSY); 3.26 ± 0.11 s⁻¹ in data set [3] (D2O PBS buffer, 310 K, EXSY); 8.78 ± 0.39 s⁻¹ in data set [3] (D2O PBS buffer, 320 K, EXSY). For the same compound, the ΔHAB in data set [3] (D2O PBS buffer, pH* ~7.4, EXSY) was determined as 1.43 ± 0.311 kcal/mol. Further, the “ΔH^‡AB” value in data set [3] (D2O PBS buffer, pH* ~7.4, EXSY) was 16.6 ± 0.22 kcal/mol. Also, the ΔSAB is 16.8 ± 4.4 J/(K·mol) in data set [3] (D2O PBS buffer, pH* ~7.4, EXSY) and 16.8 ± 4.4 J K^−1 mol^−1 in data set [3] (D2O, EXSY, van 't Hoff (Fig. 4C)). In addition, the ΔS^‡AB in data set [3] (D2O PBS buffer, pH* ~7.4, EXSY) was -11.3 ± 3 J/(K·mol); in data set [3] (D2O, EXSY, Eyring (Fig. 4D)) it was −11.3 ± 3.0 J K^−1 mol^−1.

One may read the Kd as a measure of binding affinity in units of concentration. As a reminder, the fold induction is the signal under treatment as a multiple of the control signal. The term IC50 denotes the concentration needed to halve the response being measured. Lower therefore signals higher potency.

The values are drawn from paper PMC12664080, “Tetrazole-containing naphthalene bis-sulfonamide Keap1-Nrf2 interaction inhibitors with unexpected binding modes” (Redox Biology, 2025).
